{
  "source": "patent US20230210871A1",
  "about": "(THE LIMITED COMPANY RESEARCH AND DEVELOPMENT COMPANY …, priority 2017, published 2023)",
  "target": "BSA glycation (Bos taurus, UniProt P02769)",
  "sequence (P02769 25-607)": "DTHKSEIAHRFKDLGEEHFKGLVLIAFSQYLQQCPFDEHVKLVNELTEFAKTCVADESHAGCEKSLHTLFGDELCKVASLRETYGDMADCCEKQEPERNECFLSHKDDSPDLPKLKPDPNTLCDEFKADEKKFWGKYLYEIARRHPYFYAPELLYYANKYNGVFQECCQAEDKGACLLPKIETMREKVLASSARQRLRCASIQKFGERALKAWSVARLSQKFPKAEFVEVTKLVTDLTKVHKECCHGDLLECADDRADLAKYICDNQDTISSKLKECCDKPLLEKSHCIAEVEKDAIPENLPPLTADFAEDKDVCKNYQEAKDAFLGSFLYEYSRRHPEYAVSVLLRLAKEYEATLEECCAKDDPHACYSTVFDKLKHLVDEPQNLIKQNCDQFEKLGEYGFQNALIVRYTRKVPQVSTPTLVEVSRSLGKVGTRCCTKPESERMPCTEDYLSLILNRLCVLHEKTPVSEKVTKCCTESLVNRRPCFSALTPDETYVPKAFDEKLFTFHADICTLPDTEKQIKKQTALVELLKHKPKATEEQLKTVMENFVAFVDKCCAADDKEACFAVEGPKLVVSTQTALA",
  "assay": "Determination of antiglycation activity (BSA glycation by glucose, fluorescence of glycated BSA)",
  "type": "biochemical, bovine",
  "conditions": "for The average concentration of AGEs in the sample at a given concentration of the drug (Δ %, M ± m): BSA 1 mg/ml, glucose 500 mM, pH 7.4, 24 hours at 60° C",
  "protocol": "The reaction mixture contains solutions of bovine serum albumin (1 mg/ml) and glucose (500 mM) in phosphate buffer (pH=7.4). To prevent bacterial growth, sodium azide in a final concentration of 0.02% is added to the buffer solution. All substances are dissolved in dimethyl sulfoxide (DMSO). […] All experimental samples are incubated for 24 hours at 60° C. At the end of the incubation period, specific fluorescence of glycated bovine serum albumin (BSA) is determined using an F-7000 spectrofluorimeter (Hitachi, Japan) at an excitation wavelength of 370 nm and an emission wavelength of 440 nm.\nThe calculation of the IC50 indicator is carried out by the method of regression analysis (Table 2).",
  "data": [
    {"compound": "N=C(N)NN", "note": "[Aminoguanidine, aminoguanidine]", "values": [
      {"measurement": "IC50", "setting": "calculated by regression analysis", "value": 765, "unit": "µM"},
      {"measurement": "The average concentration of AGEs in the sample at a given concentration of the drug (Δ %, M ± m)", "setting": "drug concentration 3*10^−4 mol", "value": "50.25 ± 1.08 Δ %"},
      {"measurement": "The average concentration of AGEs in the sample at a given concentration of the drug (Δ %, M ± m)", "setting": "drug concentration 3*10^−5 mol", "value": "19.14 ± 2.24 Δ %"},
      {"measurement": "The average concentration of AGEs in the sample at a given concentration of the drug (Δ %, M ± m)", "setting": "drug concentration 10^−3 mol", "value": "58.08 ± 0.72 Δ %"},
      {"measurement": "The average concentration of AGEs in the sample at a given concentration of the drug (Δ %, M ± m)", "setting": "drug concentration 10^−4 mol", "value": "38.75 ± 1.52 Δ %"},
      {"measurement": "The average concentration of AGEs in the sample at a given concentration of the drug (Δ %, M ± m)", "setting": "drug concentration 10^−5 mol", "value": "3.53 ± 2.31 Δ %"}
    ]}
  ]
}
